Results published in PMC9617636 (Antiviral Research, 2022).

Legend:
Type in all cases: cell-based
[1] = test system: SARS-CoV-2; experiment: Antiviral plaque assay in Vero-E6 cells; settings: Severe acute respiratory syndrome coronavirus 2, Vero C1008, read-out: EC50 (95% CI), SARS-CoV-2 B.1.351 (Beta), Vero-E6
[2] = test system: B.1.1.7 SARS-CoV-2
[3] = test system: −1 PRF signal of SARS-CoV-2

SMILES | EC50 [1] | change in the EC50s after 11 passages in presence of geneticin [2] | -1PRF inhibition with mutated binding pocket [3]
CN[C@@H]1[C@@H](O)[C@@H](O[C@@H]2[C@@H](O)[C@H](O[C@H]3O[C@H]([C@@H](C)O)[C@@H](O)[C@H](O)[C@H]3N)[C@@H](N)C[C@H]2N)OC[C@]1(C)O [Geneticin] | 129 µM | did not observe any significant change in the EC50s | significant loss of -1PRF inhibition
CCNCC1CCN(c2c(F)cc3c(=O)c(C(=O)O)cn(CC)c3c2F)C1 (stereo not shown) [Merafloxacin] |  |  | significant loss of -1PRF inhibition
